From patent publication US20230407243A1, “GENETIC PLATFORM TO INVESTIGATE THE FUNCTIONS OF BACTERIAL DRUG EFFLUX PUMPS” (priority 2022, published 2023)
Values after ≈ are worked out from the molar mass of the structure shown.

How the values were obtained:
ΔtolC wcaC (pCA24N) = assay: microbe, parasite or virus in culture
Method: To enable comparison between efflux production in different genetic backgrounds, each efflux pump-encoding gene was also integrated into the genome of the wild-type BW25113 strain, the single gene deletion mutant from the Keio Collection, and EKO-35. Strains of interest were propagated on LB agar at 37° C. Cell inoculum was prepared using the colony resuspension method and applied to a 96-well well plate (VWR) in technical duplicate, and the minimum inhibitory concentrations were determined according to Clinical & Laboratory Standards Institute (CLSI) protocols in MHB II (Patel J. B. et al, 2015). The plates were incubated for 18 h (Multitron Shaker, Infors HT) at 37° C. with aeration at 900 rpm. The plates were equilibrated to room temperature before the OD600 nm was measured using a BioTek Synergy H1 microplate reader. For interplay profiling, blank subtracted OD600 nm values >0.1 were considered to represent growth.
To assess fitness of EKO-35 expressing wild-type copies of the genes identified to harbor nonsynonymous mutations, Inventors obtained clones from the E. coli ASKA library (Kitagawa, M. et al., 2005) with the rspA, tufA, pitA, wcaC, gyrB, and yjfC genes carried on plasmids, with gene expression under the control of an IPTG-inducible promoter. The ASKA plasmids were verified using Sanger sequencing and gene expression was induced with 0.1 mM IPTG. In the wild-type E. coli K-12 strain, the plasmids were maintained with 25 μg/mL chloramphenicol.

ΔtolC gyrB (pCA24N) = format: cell-based, Escherichia coli
K-12 gyrB (pCA24N) = assay: MIC of strains harboring ASKA plasmids; format: cell-based; details: Escherichia coli, 0.1 mM IPTG

How did the MIC (ΔtolC wcaC (pCA24N); Escherichia coli) turn out when COc1cc(Cc2cnc(N)nc2N)cc(OC)c1OC [trimethoprim] was run?
The MIC was 0.195 mg/L.

And the MIC (ΔtolC wcaC (pCA24N); ΔtolC wcaC, Chlor +, 0.1 mM IPTG)?
Its MIC is 0.195 mg/L.

CO[C@@H]1[C@@H](OC(N)=O)[C@@H](O)[C@H](Oc2ccc3c(O)c(NC(=O)c4ccc(O)c(CC=C(C)C)c4)c(=O)oc3c2C)OC1(C)C [novobiocin] was tested. Which MIC (ΔtolC gyrB (pCA24N)) did it give?
Its MIC is 12.5 mg/L (≈ 20.4 µM).

What about the MIC (K-12 gyrB (pCA24N); Chlor + (25 μg/mL)) of the same compound?
Its MIC is 100 mg/L.

And the MIC (K-12 gyrB (pCA24N); Chlor −)?
Its MIC is 400 mg/L.
